Assay results taken from US7803757B2, “Peptides based on the sequence of human lactoferrin and their use” (PharmaSurgics in Sweden AB, priority 1998, dated 2010).
In brackets after ≈: the same amount, converted by molar mass. Bridge positions count the residues as written; N and C are the ends. Ends that are not written are not given here. Peptide text beside a SMILES is read from it.

Columns and labels:
[1] = tested on: E. coli O14; test: bactericidal and growth inhibitory activity, E. coli O14 (Example 9); format: cell-based; settings: for Concentration of agent for 100% killing: E. coli O14, 2 hours; for Concentration of agent for inhibition of growth: E. coli O14, spectrophotometrically after 20 hours
Method: E. coli O14 was incubated as described above in the presence of the peptides during 2 hours. The bactericidal activity was measured in the same way as described above.
The inhibition of growth was measured spectrophotometrically after incubation during 20 hours.

[2] = tested on: E. coli O6K5; test: microbicidal activity MMC99%, E. coli O6K5 (Example 28); format: cell-based; settings: E. coli O6K5 (Table 24)
Method: (§1) In the examples, the minimal microbicidal concentrations (MMC) and minimal inhibitory concentrations (MIC) were determined as follows, unless otherwise specified in the examples. Bacterial or fungal strains were cultured in BHI medium over night at 37° C. A volume of the culture was transferred to a new tube with BHI and incubated for two more hours. Thereafter the cells were spun down and the pellet was suspended in BHI medium diluted 1/100 (1% BHI). The concentration of bacterial or fungal cells was spectrophotometrically determined at 650 nm. The microbial concentrations were also determined by viable counts. Peptides serially diluted in 1% BHI by twofold or tenfold steps were added in triplicate to the wells of a microtiterplate (200 μl per well). The bacterial or fungal cell solutions were added in 10 μl volumes to give a final concentration of approximately 1-5×10^5 cells per ml in the well. The microplate was incubated at 37° C. in a humid chamber for two hours. Thereafter 5 μl was taken from each well and added as a drop onto a blood agar plate and incubated over night at 37° C. The microplate was incubated for another 20 hours at 37° C. and thereafter analysed spectrophotometrically at 650 nm in a microplate reader (Emax, Molecular Devices, USA). The concentration of peptide causing a 99% reduction of the inoculum after 2 hours of incubation was defined as the MMC99%. The MIC value was defined as the concentration giving no increase in the absorbance value above the background level after 20 hours of incubation.
(§2) In this example the microbicidal activity of eight of the peptides according to the invention was studied, and tested against E. coli O6K5 and C. albicans.
(§3) The concentration of each peptide needed to kill 99% of the microorganisms (MMC99%) was determined.

[3] = tested on: C. albicans; test: microbicidal activity MMC99%, C. albicans (Example 28); format: cell-based; settings: C. albicans (Table 24)
Method: as §1, §2, §3

[4] = tested on: C. albicans; test: concentration for killing of 99% of C. albicans at different pH (Example 13, FIG. 2); format: cell-based; settings: for concentration needed for killing of 99% of C. albicans, compared with the capped cyclic peptides (in words): FIG. 2, different pH
Source text: In this example the concentrations needed of three peptides according to the invention for killing of 99% of C. albicans at different pH was compared to a reference peptide. The peptides according to the invention were peptide 2 (linear), peptide 3 (cyclic), peptide 4 (linear), peptide 5 (cyclic) and peptide 7 (lactam bridged), all capped. The reference peptides used were an uncapped cyclic form and an uncapped linear form of a Morinaga peptide, Morinaga 24 and 25. The results are illustrated in FIG. 2.

[5] = tested on: C. albicans (ATCC 64549); test: microbe, parasite or virus in culture
Method: as §1
In this example the fungicidal activity of one of the peptides according to the invention, the peptide with SEQ. ID. NO. 7, was compared to the conventional antifungal agents flucytosine and fluconazole, and also to human lactoferrin (hLF). The antifungal agents were tested on C. albicans (ATCC 64549) in a concentration of 2×10^5 cells/ml. The tests were performed in BHI medium diluted 1/100.

[6] = tested on: Candida albicans ATCC 64549; test: fungicidal and growth inhibitory activity, Candida albicans ATCC 64549 (Example 8); format: cell-based; settings: for Concentration of agent for 100% killing: C. albicans ATCC 64549 1·10^5/ml, 2 hours 37° C., diluted BHI; for Concentration of agent for inhibition of growth: C. albicans ATCC 64549, spectrophotometrically after 20 hours
Method: Candida albicans ATCC 64549 (1·10^5/ml) was incubated in the presence of the peptides during 2 hours at 37° C. in diluted growth medium (BHI, twofold serial dilutions starting with 50 μg/ml). The fungicidal activity was measured by culturing 5 μl from each incubation well on Saboroud agar plates.
The inhibition of growth was measured spectrophotometrically after 20 hours of incubation.

[7] = tested on: reference strain of S. aureus; test: bactericidal activity, reference strain of S. aureus (Example 19); format: cell-based; settings: reference strain of S. aureus 5.0×10^5 per ml, 2 hours at 37° C., lowest concentration tested 6.25 μg/ml
Method: In this example the bactericidal activity of three of the peptides according to the invention was studied in a test with a reference strain of S. aureus. A bacterial solution with a concentration of 5.0×10^5 S. aureus bacterial per ml was used. The concentration of each peptide needed to kill 99% of the bacteria (MMC99%) was determined after 2 hours of incubation at 37° C. The lowest concentration tested was 6.25 μg/ml.

[8] = tested on: LPS-induced IL-6 response in a monocytic cell line (THP-1); test: inhibition of LPS-induced IL-6 response in THP-1 cells (Example 5); format: cell-based; settings: IL-6 response in THP-1 cells, agent added 30 minutes after LPS
Method: In this example an in vitro test was performed to study the anti-inflammatory activity of the peptides according to the invention. More precisely, the inhibitory effect of the peptides according to the invention on the LPS-induced IL-6 response in a monocytic cell line (THP-1) was studied and compared to the effect of human lactoferrin by use of the method described by I. Mattsby-Baltzer et al., Pediatr. Res. 40:257-262, 1996. The IL-6 response in the THP-1 cells was induced by addition of LPS. hLF, peptide 3 and peptide 4, respectively, were added 30 minutes after LPS.

[9] = tested on: E. coli O14; test: bactericidal activity, incubation with E. coli O14 (Example 3, exp. I and III); format: cell-based
Method: Human lactoferrin (hLF), peptide 3, and peptide 4, respectively, were incubated with two different strains of E. coli, E. coli O14 (experiment I) and O6K5 (experiment II), in diluted growth medium ( 1/100 BHI—brain heart infusion) for 2 hours. The peptides were also incubated with E. coli O14 in 0.05 mM KCl (pH 7) without any growth medium (experiment III). Different concentrations of the peptides were tested.
After the incubation, samples were taken for bacterial plating. Serial dilutions of five- and fourfold steps were used in experiments I and II, respectively, and of twofold steps in experiment III.
The concentrations of the different peptides required for killing 100% (experiments I and II) or 90% (experiment III) of the bacteria are given in table 2.

[10] = tested on: E. coli O6K5; test: urinary tract infection in mice, bacteria (CFU) in kidney (Example 6); format: in vivo; settings: Exp II, mouse strain C3H/Tif, 500 μg per mouse orally 30 minutes after instillation, 24 hours
Method: E. coli O6K5 was instilled into the urinary bladder of mice. 30 minutes after instillation the different agents specified in table 5 were administered orally in an amount of 500 μg per mouse and 24 hours after instillation the number of bacteria (CFU) present in bladder and in kidney was determined.
The control group consisted of 10 animals in experiment I and of 23 animals in experiment II. The animals in the control groups were given tap water instead of peptide or hLF.

[11] = tested on: Candida krusei; test: fungicidal activity against Candida krusei strains (Example 4); format: cell-based; settings: Exp. I
Method: (§4) In this example the fungicidal activity of the peptides according to the invention was tested and compared to the fungicidal activity of human lactoferrin. Different concentrations of hLF, peptide 3 and peptide 4 were incubated with different strains of Candida albicans and Candida krusei during 1-2 hours at 37° C. in 0.05 mM KCl at pH 7.0 at two different occasions—experiment I and II, respectively. After incubation samples were taken for plating on Saboroud plates.

[12] = tested on: Candida albicans; test: fungicidal activity against Candida albicans strains (Example 4); format: cell-based
Method: as §4

In the case of `CSCC[C@H](NC(=O)[C@@H]1CC(=O)NCCCC[C@H](NC(=O)[C@H](Cc2ccccc2)NC(=O)[C@H](C)NC(=O)[C@H](CCCCN)NC(=O)[C@@H](NC(C)=O)[C@@H](C)O)C(=O)N[C@@H](Cc2c[nH]c3ccccc23)C(=O)N[C@@H](CCC(N)=O)C(=O)N[C@@H](CCCNC(=N)N)C(=O)N1)C(=O)N[C@@H](CCCNC(=N)N)C(=O)N[C@@H](CCCCN)C(=O)N[C@H](C(=O)N[C@@H](CCCNC(=N)N)C(N)=O)C(C)C` [Peptide 7] (Ac-TKAFKWQRDMRKVR-NH2; lactam 5-9), the “Concentration of agent for 100% killing” value [1] is reported as 12.5 µg/mL, the “Concentration of agent for inhibition of growth” value [1] is reported as “≦1.5 μg/ml” and the MMC99% [2] is reported as greater than 20. The MMC99% [3] was 5, the “concentration needed for killing of 99% of C. albicans, ranking over all pH (in words)” value ([4]; FIG. 2, all different pH) was “most effective peptide at all different pH” and the “concentration needed for killing of 99% of C. albicans, compared with the capped cyclic peptides (in words)” value [4] was “better effects than the capped cyclic peptides”. The MIC ([5]; ATCC64549) was 6.2 µg/mL (≈ 3.31 µM), the MMC99% ([5]; C. albicans ATCC 64549, 2×10^5 cells/ml, BHI diluted 1/100) was 6.2 µg/mL and the “Concentration of agent for 100% killing” value [6] was 3.1 µg/mL. For the same molecule, the “Concentration of agent for inhibition of growth” value [6] was 1.5 µg/mL and the MMC99% [7] was “≦6.25 μg/ml”.

“Peptide 3: cyclic form of SEQ. ID. NO. 2, disulphide bridge between the two cysteines in positions 5 and 22 (Ac-EATKCFQWQRNMRKVRGPPVSCIKR; disulfide 5-22)” was tested, and the “Concentration of agent for 100% killing” value [1] was 12.5 µg/mL, the “Concentration of agent for inhibition of growth” value [1] was 3.1 µg/mL and the “% inhibition of LPS response” value [8] was 17%. For the same molecule, the “Concentration of agent for 100%/90% killing” value ([9]; Exp. I: 100% killing, E. coli O14, 1/100 BHI, 2 hours) was 4.4 µg/mL, the “Concentration of agent for 100%/90% killing” value ([9]; Exp. III: 90% killing, E. coli O14, 0.05 mM KCl (pH 7) without growth medium) was 12.5 µg/mL and the “concentration needed for killing of 99% of C. albicans, compared with the capped cyclic peptides (in words)” value [4] was “better effects than the capped cyclic peptides”. The “Statistical comparison of treatment group with control group of the number of bacteria, CFU, present in kidney (p, Mann-Whitney)” value [10] was “p = 0.0574”, the “Concentration of agent for 100% killing” value [6] was 6.2 µg/mL and the “Concentration of agent for inhibition of growth” value [6] was 6.2 µg/mL. The “ratio hLF/pep. (concentration for 99% killing)” value ([11]; C. krusei CCUG 969) was 20, the “Concentration of agent for 99% killing” value ([11]; C. krusei CCUG 969, 0.05 mM KCl pH 7.0) was 1.25 µg/mL and the “ratio hLF/pep. (concentration for 99% killing)” value ([11]; C. krusei CCUG 35849) was 21. For the same molecule, the “Concentration of agent for 99% killing” value ([11]; C. krusei CCUG 35849, 0.05 mM KCl pH 7.0) was 0.6 µg/mL, the “ratio hLF/pep. (concentration for 99% killing)” value ([12]; Exp. I, C. albicans ATCC 64549) was greater than 83 and the “Concentration of agent for 99% killing” value ([12]; Exp. I, C. albicans ATCC 64549, 0.05 mM KCl pH 7.0, 1-2 hours 37° C.) was 0.6 µg/mL. The “ratio hLF/pep. (concentration for 99% killing)” value ([12]; Exp. I, C. albicans CCUG 90028) was greater than 83, the “Concentration of agent for 99% killing” value ([12]; Exp. I, C. albicans CCUG 90028, 0.05 mM KCl pH 7.0) was 0.6 µg/mL and the “ratio hLF/pep. (concentration for 99% killing)” value ([12]; Exp. II, C. albicans ATCC 64549) was greater than 133. The “Concentration of agent for 99% killing” value ([12]; Exp. II, C. albicans ATCC 64549, 0.05 mM KCl pH 7.0) was 1.5 µg/mL, the “ratio hLF/pep. (concentration for 99% killing)” value ([12]; Exp. II, C. albicans CCUG 599) was greater than 133 and the “Concentration of agent for 99% killing” value ([12]; Exp. II, C. albicans CCUG 599, 0.05 mM KCl pH 7.0) was 1.5 µg/mL. The “ratio hLF/pep. (concentration for 99% killing)” value ([12]; Exp. II, C. albicans CCUG 1759) was greater than 133 and the “Concentration of agent for 99% killing” value ([12]; Exp. II, C. albicans CCUG 1759, 0.05 mM KCl pH 7.0) was 1.5 µg/mL.

In the case of “SEQ. ID. NO. 36: second embodiment, sequence from a position 13-25 to position 31 of human lactoferrin; sequence only in sequence listing (TKCFQWQRNMRKVR; ends and bridges not checked)”, the MMC99% [7] is reported as “≦6.25 μg/ml”.

For “SEQ. ID. NO. 98: 14 amino acids, modified positions 18-31 of human lactoferrin; sequence only in sequence listing (TKKFQWQRNMRKVR)”, the MMC99% [7] was “≦6.25 μg/ml”.
